The record followed here is patent publication US20260091147A1, “METHOD FOR DETECTING INNATE IMMUNE ACTION IN VIVO USING GPR84-PET” (The Board of Trustees of the Leland Standford Junior …, priority 2023, published 2026).

Structures are written as SMILES.

For series [1] the following is noted: healthy rhesus macaque, n=1. On the procedure: The animal was anesthetized in the home cage with Telazol and transported to the PET facility, where the subject was intubated for mechanical ventilation; anesthesia was continued with isoflurane and maintained throughout the duration of the PET scan. A venous catheter was inserted into one hind limb and the monkey was placed on the PET gantry with its head secured to prevent motion artifacts. […] Emission data were collected beginning with the injection and continued for 60 minutes. Vitals (HR, SPO2, EtCO2 and respiratory rate) were collected for the entire duration of the scan. Data were corrected for attenuation and scatter and reconstructed using the three-dimensional-maximum a priori method (3D MAP algorithm). A ROI was defined for the whole brain on multiple planes by using a summed image. The volumetric ROI was then applied to a full dynamic data set to generate a TAC.

Series [2] has as its target T1, GPR84 (Mus musculus, UniProt Q8CIM5).
T1 construct: tissue Jackson Laboratories; host or cells: female C57BL/6J mice (LPS, saline, EAE or naive): brain, spinal cord and peripheral organs
Put plainly: Dynamic PET/CT of brain in LPS-induced systemic inflammation vs saline, with or without GLPG1205 block. The format is in vivo. The note with it: LPS 10 mg/kg, 24 h. On the procedure: To determine KD of GLPG38, a competitive binding assay was performed using a membrane preparation from cells expressing GPR84-Gi in addition to [^3H]G9543, a known GPR84 antagonist. [^11C]GLPG38 was then radiosynthesized via [^11C]methylation of desmethyl precursor using [^11C]methyl iodide. […] Dynamic 60 min PET/CT imaging was performed 24 hr following LPS-administration using [^11C]GLPG38. Subsequently, mice were perfused with PBS to remove blood, and radioactive signal was assessed in CNS and peripheral tissues via gamma counting. Ex vivo autoradiography of sagittal mouse brain sections was conducted to obtain high resolution images of [^11C]GLPG38 binding. To investigate alterations in GPR84 mRNA expression, quantitative polymerase-chain reaction was performed using mouse brain tissue and human monocyte-derived macrophage cells stimulated with LPS 24 hr prior to RNA extraction.
The count densities were averaged for all volumes of interest at each time point to obtain a time-activity curve (TAC). The TACs were normalized to injected dose, as measured by a CRC-15 PET dose calibrator (Capintec Inc.), and expressed as % injected dose per gram (% ID/g), assuming 1 g/mL. CT was performed in GNEXT depth of interaction (DOI) dual-layer detector system. Scintica VivoQuant software was used to visualize radiotracer uptake and define the 3D volumes of interest. 3D maximum intensity projection (MIP) PET/CT images were created using IRW software.
A range of doses (0.65, 0.75, and 0.90 mg/kg) of GLPG1205 were used to investigate whether the blocking was dose-dependent. […] GLPG1205 was injected intra-venously 10 min prior to radiotracer injection (n=4).

Series [3] addresses T1, GPR84. Put plainly: Ex vivo autoradiography of brain sections from LPS-treated mice. The format is in vivo. Here is the method:
To determine KD of GLPG38, a competitive binding assay was performed using a membrane preparation from cells expressing GPR84-Gi in addition to [^3H]G9543, a known GPR84 antagonist. [^11C]GLPG38 was then radiosynthesized via [^11C]methylation of desmethyl precursor using [^11C]methyl iodide. Binding specificity of [^11C]GLPG38 was assessed using human GPR84-stably-expressing human embryonic kidney cells (HEK-293) versus control HEK-293 cells. For animal studies, sepsis was induced in female C57BL/6J mice via intraperitoneal injection of lipopolysaccharide (LPS, 10 mg/kg); vehicle-treated mice were injected with saline alone. Dynamic 60 min PET/CT imaging was performed 24 hr following LPS-administration using [^11C]GLPG38. Subsequently, mice were perfused with PBS to remove blood, and radioactive signal was assessed in CNS and peripheral tissues via gamma counting. Ex vivo autoradiography of sagittal mouse brain sections was conducted to obtain high resolution images of [^11C]GLPG38 binding. To investigate alterations in GPR84 mRNA expression, quantitative polymerase-chain reaction was performed using mouse brain tissue and human monocyte-derived macrophage cells stimulated with LPS 24 hr prior to RNA extraction.
Ex vivo Audoradiography Confirms ^11C-MGX-10S Specificity.

Series [4] relates to GPR84-positive immune cells. Put plainly: PET/CT in B16F1 melanoma brain metastasis model, with or without anti-PD-1 and anti-CTLA-4. The note with it: anti-PD-1 and anti-CTLA-4, day 9. The format is in vivo, mouse. On the procedure:
Six-to-eight-week-old female C57BL/6 mice were injected subcutaneously with 0.25×10^6 B16F1 melanoma cells on the right flank to generate extracranial tumors. After two days of extracranial tumor inoculation, 5×10^3 B16F1 melanoma cells were stereotactically injected into the striatum. Five days after intracranial tumor inoculation, mice were randomized into treatment (n=4) vs no treatment (n=4) groups based on the intracranial bioluminescence signals and monitored daily starting on day 5 for extracranial tumor volume changes. On days 5, 7 and 9 post-intracranial tumor inoculation, mice in the treatment group were treated with anti-PD-1 and anti-CTLA-4 (200 μg via intraperitoneal injection). T2-weighted MRI (Bruker) with a CryoProbe was performed on day 9 after intracranial tumor inoculation to identify brain tumor region of interest. Following MRI, mice underwent PET/CT imaging on the GNEXT PET/CT (Sofie). 100-125 μCi of [^18F]MGX-110S was injected for a 10-min static PET scan followed by CT. Mice were then perfused and organs of interest were dissected and analyzed via gamma counting. Region of interest analysis of the PET images was performed using a 3D volume drawing mode around the intracranial and extracranial tumors (Inveon Research Workspace).

T1 sequence (Q8CIM5 whole entry): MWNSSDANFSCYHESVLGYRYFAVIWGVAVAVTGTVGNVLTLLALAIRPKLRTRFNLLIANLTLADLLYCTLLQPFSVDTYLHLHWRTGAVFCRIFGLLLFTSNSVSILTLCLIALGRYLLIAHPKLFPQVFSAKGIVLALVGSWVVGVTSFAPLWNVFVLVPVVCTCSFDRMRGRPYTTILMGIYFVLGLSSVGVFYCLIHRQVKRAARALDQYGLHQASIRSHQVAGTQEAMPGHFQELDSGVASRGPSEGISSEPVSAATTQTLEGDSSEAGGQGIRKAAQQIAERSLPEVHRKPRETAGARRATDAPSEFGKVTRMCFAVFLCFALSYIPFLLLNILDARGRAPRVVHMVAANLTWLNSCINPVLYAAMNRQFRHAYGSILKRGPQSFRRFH

Regarding `Cc1cc2c(cc1O[11CH3])CCn1c-2c(C)c(OC[C@@H]2COCCO2)cc1=O` [[^11C]GLPG38], in series [1], the “peak whole-brain uptake at 4 minutes post injection” value stood at 3.3 SUV and the “whole-brain level after washout over 60 min” value turned out to be 1.47 SUV. Moreover, the “brain PET signal in LPS-treated vs saline-treated mice at 40-60 min post injection” value at GPR84 [2] is recorded as “significantly elevated”. For the same compound, the “tracer binding in LPS brain sections after pre-blocking with GLPG1205” value on GPR84 [3] (GLPG1205 5 mg/kg ([11C]GLPG38) or 1 mg/kg (11C-MGX-10S)) is listed as “substantial reduction”. In addition, the “tracer binding in brain sections, LPS-treated vs vehicle mice” value at GPR84 [3] (mouse, in vivo) is on record as “marked increase”.

For the compound `O=c1nc(OC[C@@H]2COCCO2)cc2n1CCc1cc([18F])ccc1-2` [^18F-MGX-110S], in series [4], the “PET signal in intracranial tumor, untreated vs immunotherapy-treated mouse” value is given as “significantly elevated signal”.
